Patent US9302999B2, “Substituted triazoles as herbicides” (E. I. DU PONT DE NEMOURS AND COMPANY, priority 2012, dated 2016)

Columns and labels:
Type in all cases: in vivo
[1] = tested on: foxtail, giant (giant foxtail, Setaria faberii); test: Test A pre-/postemergence: foxtail, giant; details: for Foxtail, Giant plant response rating: Postemergence; for Plant response rating, Foxtail, Giant: Preemergence
Source text: (§1) Seeds of barnyardgrass (Echinochloa crus-galli), crabgrass, large (large crabgrass, Digitaria sanguinalis), foxtail, giant (giant foxtail, Setaria faberii), morningglory (Ipomoea spp.), pigweed (Amaranthus retroflexus), velvetleaf (Abutilon theophrasti), wheat (Triticum aestivum), and corn (Zea mays) were planted into a blend of loam soil and sand and treated preemergence with a directed soil spray using test chemicals formulated in a non-phytotoxic solvent mixture which included a surfactant. At the same time these species were also treated with postemergence applications of test chemicals formulated in the same manner.
(§2) Plants ranged in height from two to ten cm and were in the one- to two-leaf stage for the postemergence treatment. Treated plants and untreated controls were maintained in a greenhouse for approximately ten days, after which time all treated plants were compared to untreated controls and visually evaluated for injury. Plant response ratings, summarized in Table A, are based on a 0 to 100 scale where 0 is no effect and 100 is complete control. A dash (-) response means no test result.

[2] = tested on: velvetleaf (Abutilon theophrasti); test: Test A pre-/postemergence: velvetleaf; details: for Velvetleaf plant response rating: Postemergence; for Plant response rating, Velvetleaf: Preemergence
Summary of the method: (§3)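 Rating scale 0–100 (100 = complete control), visual, ~10 days after application in the greenhouse. Applications: preemergence directed soil spray; postemergence at 1–2 leaves.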

[3] = tested on: morningglory (Ipomoea spp.); test: Test A pre-/postemergence: morningglory; details: for Morningglory plant response rating: Postemergence; for Plant response rating, Morningglory: Preemergence
Source text: as §1, §2

[4] = tested on: crabgrass, large (large crabgrass, Digitaria sanguinalis); test: Test A pre-/postemergence: crabgrass, large; details: for Crabgrass, Large plant response rating: Postemergence; for Plant response rating, Crabgrass, Large: Preemergence
Source text: as §1, §2

corn (Zea mays) = test: Test A pre-/postemergence: corn; details: for Corn plant response rating: Postemergence; for Plant response rating, Corn: Preemergence
Source text: as §1, §2

[5] = tested on: wheat (Triticum aestivum); test: Test A pre-/postemergence: wheat; details: for Wheat plant response rating: Postemergence; for Plant response rating, Wheat: Preemergence
Summary of the method: as §3

[6] = tested on: pigweed (Amaranthus retroflexus); test: Test A pre-/postemergence: pigweed; details: for Pigweed plant response rating: Postemergence; for Plant response rating, Pigweed: Preemergence
Source text: as §1, §2

[7] = tested on: barnyardgrass (Echinochloa crus-galli); test: Test A pre-/postemergence: barnyardgrass; details: for Barnyardgrass plant response rating: Postemergence; for Plant response rating, Barnyardgrass: Preemergence
Source text: as §1, §2

[8] = 125 g ai/ha, 0 to 100 scale, 0 is no effect, 100 is complete control
[9] = 500 g ai/ha, visual rating on 0 to 100 scale (0 no effect, 100 complete control), approximately ten days
[10] = 125 g ai/ha, 0 to 100 scale where 0 is no effect and 100 is complete control
[11] = 500 g ai/ha, 0 to 100 scale, 0 is no effect, 100 is complete control
[12] = 125 g ai/ha, 0 to 100 scale (0 no effect, 100 complete control)
[13] = 500 g ai/ha, 0 to 100 scale (0 no effect, 100 complete control)

Structure (SMILES)	Foxtail, Giant plant response rating [1, 8]	Foxtail, Giant plant response rating [1, 9]	Plant response rating, Foxtail, Giant [1, 10]	Plant response rating, Foxtail, Giant [1, 11]	Velvetleaf plant response rating [2, 8]	Velvetleaf plant response rating [2, 9]	Plant response rating, Velvetleaf [2, 10]	Plant response rating, Velvetleaf [2, 11]	Morningglory plant response rating [3, 8]	Morningglory plant response rating [3, 9]	Crabgrass, Large plant response rating [4, 8]	Crabgrass, Large plant response rating [4, 9]	Corn plant response rating (corn (Zea mays); [8])	Corn plant response rating (corn (Zea mays); [9])	Wheat plant response rating [5, 8]	Wheat plant response rating [5, 9]	Pigweed plant response rating [6, 8]	Pigweed plant response rating [6, 9]	Barnyardgrass plant response rating [7, 8]	Barnyardgrass plant response rating [7, 9]	also measured
Cc1nn(-c2ccc(F)cc2)nc1Oc1nccc(C(F)(F)F)n1 [Compound 102]	0	0	0	0	0	0	0	0	0	0	0	10	0	0	0	0	10	70	0	0	Plant response rating, Morningglory [3, 10]: 0; Plant response rating, Morningglory [3, 11]: 0; Plant response rating, Crabgrass, Large [4, 12]: 0; Plant response rating, Crabgrass, Large [4, 11]: 0; Plant response rating, Corn (corn (Zea mays); [12]): 0; Plant response rating, Corn (corn (Zea mays); [11]): 0; Plant response rating, Wheat [5, 10]: 0; Plant response rating, Wheat [5, 11]: 0; Plant response rating, Pigweed [6, 10]: 0; Plant response rating, Pigweed [6, 11]: 0; Plant response rating, Barnyardgrass [7, 12]: 0; Plant response rating, Barnyardgrass [7, 11]: 0
Cc1nn(-c2ccc(F)cc2)nc1Oc1cccc(C(F)(F)F)n1 [Compound 127]	10	20	10		20	20	0		20	30	10	30	10	20	0	10	40	60	10	20	Plant response rating, Foxtail, Giant [1, 13]: 30; Plant response rating, Velvetleaf [2, 13]: 0; Plant response rating, Morningglory [3, 10]: 0; Plant response rating, Morningglory [3, 13]: 0; Plant response rating, Crabgrass, Large [4, 10]: 10; Plant response rating, Crabgrass, Large [4, 13]: 40; Plant response rating, Corn (corn (Zea mays); [10]): 0; Plant response rating, Corn (corn (Zea mays); [13]): 0; Plant response rating, Wheat [5, 10]: 0; Plant response rating, Wheat [5, 13]: 0; Plant response rating, Pigweed [6, 10]: 0; Plant response rating, Pigweed [6, 13]: 20; Plant response rating, Barnyardgrass [7, 10]: 0; Plant response rating, Barnyardgrass [7, 13]: 10
Cc1nn(-c2ccc(C(F)(F)F)cc2)nc1Oc1cc(C(F)(F)F)nn1C [Compound 104]	20	50	60	90	30	60	0	30	60	90	50	70	10	20	0	0	70	100	20	30	Plant response rating, Morningglory [3, 10]: 0; Plant response rating, Morningglory [3, 11]: 0; Plant response rating, Crabgrass, Large [4, 12]: 60; Plant response rating, Crabgrass, Large [4, 11]: 90; Plant response rating, Corn (corn (Zea mays); [12]): 0; Plant response rating, Corn (corn (Zea mays); [11]): 0; Plant response rating, Wheat [5, 10]: 0; Plant response rating, Wheat [5, 11]: 0; Plant response rating, Pigweed [6, 10]: 30; Plant response rating, Pigweed [6, 11]: 90; Plant response rating, Barnyardgrass [7, 12]: 10; Plant response rating, Barnyardgrass [7, 11]: 20
Cc1nn(-c2ccc(C(F)(F)F)cc2)nc1Nc1cccc(C(F)(F)F)c1 [Compound 69]	10	10		0	10	20		0	20	30	10	20	10	20	0	10	30	90	10	10	Plant response rating, Foxtail, Giant [1, 12]: 0; Plant response rating, Velvetleaf [2, 12]: 0; Plant response rating, Morningglory [3, 12]: 0; Plant response rating, Morningglory [3, 11]: 0; Plant response rating, Crabgrass, Large [4, 12]: 0; Plant response rating, Crabgrass, Large [4, 11]: 10; Plant response rating, Corn (corn (Zea mays); [12]): 0; Plant response rating, Corn (corn (Zea mays); [11]): 0; Plant response rating, Wheat [5, 12]: 0; Plant response rating, Wheat [5, 11]: 0; Plant response rating, Pigweed [6, 12]: 0; Plant response rating, Pigweed [6, 11]: 10; Plant response rating, Barnyardgrass [7, 12]: 0; Plant response rating, Barnyardgrass [7, 11]: 0
